Measurements as given in US11596623B2, “Methods for treating virus infection or proliferation” (HOWARD UNIVERSITY, priority 2018, dated 2023).
Read-outs that look alike come from different tables or passages of the source.

How the values were obtained:
[1] = tested on: IRES (β-Globin); test: Dual-luciferase reporter assay, β-Globin control construct; assay type: cell-based
Description: Dual-luciferase reporter constructs were generously provided from (Plank et al., 2013) and (Carvajal et al., 2016). In the plasmid constructs, renilla luciferase (Rluc) translation is cap-dependent, while the firefly luciferase (Flue) translation depends on HIV-1 IRES. The Fluc/Rluc ratio was measured in the presence or the absence of the compounds in HEK293T cells transfected with the dual-luciferase plasmid bearing either Beta-globin, HCV, HIV-1 gag, EMVC or HIV-1 ladder sequences. Cells get transfected with the plasmids using Lipofectamine 3000 Reagent, from Thermo Fisher Scientific. Then treated with RACK1 inhibitors and its analogs (SD-29, and SD-29-14) at different concentrations; 1 μM, 10 μM, and […]. Moreover, the cells were treated with Dimethyl sulfoxide (DMSO) as a vehicle control or left untreated. Luc-Pair™ Duo-Luciferase Assay Kit 2.0 Kit (Genecopoeia) was used to measure the luciferase activity. HEK293T cells were grown to reach no more than 90% confluent at the desired time of lysate preparation.
For measuring Fluc/Rluc ratio and bioluminescence, Both Renilla and Firefly substrates were added to the same wells containing respective plasmid constructs. After the described incubation period, luciferase activity was evaluated from bioluminescence images acquired by a Perkin Elmer IVIS Spectrum Imaging system immediately after adding luciferase substrates. The Spectral Un-mixing options integrated in the software was used to un-mix the respective luminescence from Renilla and Firefly. Bioluminescence intensity in each well was quantified in units of photons per second per centimeter squared per steradian (p/s/cm^2/sr) by drawing a polygonal region of interest over the signals in images using Living Image 3.0 software (Caliper Life Sciences).
Dual-luciferase reporter constructs were used to determine if the drugs targeting RACK1 affect IRES-mediated translation. Renilla luciferase (Rluc) translation dependent on cap and the firefly luciferase (Fluc) translation dependent on HIV-1 IRES were utilized. The Fluc/Rluc ratio was measured in the presence or the absence of the compounds in the HEK293T cells transfected with the dual-luciferase plasmid bearing the predicted IRES from HIV-1 driving a firefly luciferase reporter gene and a cap dependent renilla luciferase from the same construct. As a control, HCV IRES is used within the dual luciferase construct (instead of HIV-1) as a positive control as HCV is known to use IRES solely for translating its transcripts, while Beta-globin plasmid was used as a negative control. The dual-luciferase reporters, as used here, are previously reported where HIV-1 IRES were reported (Plank, T. D., J. T. Whitehurst, and J. S. Kieft, Cell type specificity and structural determinants of IRES activity from the 5′ leaders of different HIV-1 transcripts. Nucleic Acids Res, 2013. 41(13): p. 6698-714; Carvajal, F., et al., Structural domains within the HIV-1 mRNA and the ribosomal protein S25 influence cap-independent translation initiation. FEBS J, 2016. 283(13): p. 2508-27.) The cells were transfected with the plasmids using Lipofectamine, then treated with RACK1 inhibitors (SD-29 and SD29-14) at different concentrations (1, 10, and 50 μM). Control cells were treated with DMSO or left untreated. SV40 promoter produces a capped and poly-adenylated dicistronic message. Translation of the upstream cistron (renilla luciferase, RLUC) is cap dependent, whereas translation of the downstream cistron (firefly luciferase, FLUC) occurs cap independently. The dual luciferase constructs are depicted in FIG. 1A. IRES activity is measured by calculating the ratio of FLUC to RLUC light production (RLUs) (Plank et al., 2013).

[2] = tested on: HSV1-Luc (R8411); test: HSV1-Luc bioluminescence luciferase assay in HEp-2 cells; assay type: cell-based, HSV-1; set-up: HSV-1 proliferation (luciferase signal): dose or concentration left out as unconfirmed
Description: (A) Hep-2 cells were incubated with the indicated compounds in the presence of HSV1-Luc virus at a concentration of 4×10^6 pfu/ml media. (B) Quantification of the luciferase signal from the samples in panel (A). Signals from three replicates from two separate experiments were combined to generate the average and the standard error bar.
(§1) To 80-90% confluent HEp-2 cells, HSV-1-Luc (R8411) are added at a concentration of 2×10e^6 pfu/ml along with indicated concentration of inhibitor compounds. After the described incubation period, luciferase activity is evaluated from bioluminescence images acquired by a Perkin Elmer IVIS Spectrum Imaging system immediately after adding luciferase substrate (D-luciferin, Gold Bio Technology) at a concentration of 400 μg/mL in medium. Bioluminescence intensity in different wells is quantified in units of photons per second per centimetre squared per steradian (p/s/cm^2/sr) by drawing a polygonal region of interest over the signals in images using Living Image 3.0 software (Caliper Life Sciences).
as §1, with “cells, HSV1-Luc” for “cells, HSV-1-Luc”, “(R8411) was” for “(R8411) are”, “activity was” for “activity is”, “wells was” for “wells is”, “per centimeter” for “per centimetre”
To visualize the effect of the drugs on the proliferation of HSV-1, a luciferase tagged HSV-1 F strain expressing luciferase (R8411 mutant) under the control of ICP27 promoter was obtained [Horsburgh B C, Hubinette M M, Tufaro F. Genetic manipulation of herpes simplex virus using bacterial artificial chromosomes. Methods Enzymol. 1999; 306:337-52]. […] The same samples after incubation of 48 h were used to assay for HSV-1 ICP0 and RACK1 protein expression (B of FIG. 5). Depletion of RACK1 by the compounds correlated with the depletion of the viral ICP0 protein confirming earlier results shown in B of FIG. 3.

[3] = tested on: HEp-2 cells; test: Trypan blue exclusion cell viability; assay type: cell-based; details: 24-hour treatment
Description: In order to assess whether the compounds are producing any toxicity that can led to the cell deaths, we evaluated the cell viability by the trypan blue exclusion method. As long-term inhibition of RACK1 expression has been reported to cell cycle arrest, we limited our experimental treatments to 24 h and evaluated the cell viability of almost full confluent cells after 24 h of compound treatment.
In table 2, the viability of cells was measured with Trypan blue exclusion assay in a Cellometer (Nexcelom, Lawrence, Mass.). The percentage survival of the compound treated cells was evaluated along with the DMSO treated cells. The values represent the mean±SE of three separate well based replicates.

Structure (SMILES)	FLUC ([1]; 1 μM) [p/s/cm^2/sr]	FLUC/RLUC Ratio ([1]; 1 μM)	FLUC ([1]; 10 μM) [p/s/cm^2/sr]	FLUC/RLUC Ratio ([1]; 10 μM)	RLUC ([1]; 10 μM) [p/s/cm^2/sr]	FLUC ([1]; 50 μM) [p/s/cm^2/sr]	FLUC/RLUC Ratio ([1]; 50 μM)	RLUC ([1]; 50 μM) [p/s/cm^2/sr]	HSV-1 proliferation (luciferase signal) [2]	efficacy compared with acyclovir ([2]; HSV1-Luc, acyclovir 10 μM)	HSV-1 proliferation (luciferase signal) ([2]; co-treatment of compound and virus, dose series)	concentration from which inhibition of HSV-1 (HSV1-Luc) proliferation starts ([2]; in vitro, luciferase signal) [µM]	efficacy relative to SD-29 ([2]; starting concentration, HSV-1 luciferase signal) [times]	HEp-2 Cell viability, Mean ([3]; 10 μM) [%]	HEp-2 Cell viability, Mean ([3]; 100 μM) [%]	RLUC ([1]; 1 μM) [p/s/cm^2/sr]
Nn1c(S)nnc1-c1cc(Cl)cc(Cl)c1 [SD29-14]	2.21E+04	0.067 ± 0.002	2.72E+04	0.062 ± 0.003	4.39E+05	1.74E+04	0.067 ± 0.004	2.62E+05	significantly inhibited the HSV-1 proliferation	slightly higher level	strong inhibition of HSV-1 proliferation in a dose dependent manner	1	100	97.5	93.7	–
Nn1c(S)nnc1-c1ccc(F)cc1 [SD-29]	4.02E+04	0.068 ± 0.002	3.52E+04	0.074 ± 0.006	4.70E+05	3.74E+04	0.093 ± 0.004	4.01E+05	much less efficacy	–	–	–	–	94.0	92.7	5.82E+05
